In patent US6284768A, “Src family SH2 domain inhibitors” (Boehringer Ingelheim Pharmaceuticals, Inc., priority 1999, dated 2001):

Target: T1, p56lck GST-SH2 (lck SH2 domain) (Homo sapiens, UniProt P06239)
T1 construct: GST (N)
Assay: Receptor-ligand equilibrium binding constants by surface plasmon resonance (biosensor), lck SH2 domain
Conditions: Table 1, compounds of formula (II)
Experimental: The general methods for the determination of Receptor-Ligand Kinetic and Equilibrium Binding Constants using Surface Plasmon Resonance as applied to the lck SH2 Domain have been described in: M. M. Morelock, R. H. Ingraham, R. Betageri.
General Biosensor Methods.
The mobile phase buffer, 10 mM HEPES, pH 7.4, 150 mM NaCl, and 0.05% P-20, was maintained at a flow rate of 5 μL/min in all experiments. All buffers and protein solutions were filtered through a 0.2 um filter and degassed immediately before use.
Strepavidin was diluted to 0.25 mg/ml in 20 mM NaOAc buffer, pH 4.5 and immobilized by free amine coupling to approximately 3000 RU for all 4 flow cells from a single sensor chip .
Surface Kd Determinations.
The surface was regenerated by 4μL of 20 mM HCl followed by 4 μL of 150 mM Tris base. The values used in the analysis were the equilibrium plateau values from which the sample refractive index has been subtracted. For the data analyzed for linear function the equilibrium plateau values without the sample refractive index subtracted were used. Free solution Kd determinations. In a 96 well microtiter plate 20 nM SH2 domain suspended in running buffer containing 0.2 mg/ml BSA and 1 mM DT'T was distributed in 100 μL per well. The highest concentration of compound tested was added to the last well and titrated with 2 fold dilutions for a final of 10 concentrations to be run. 25 μL of the mixture was injected over a strepavidin-biotin-ε-aminohexanoic acid-EGQpYEEIPIA surface and regenerated with 4 μL of 20 mM HCl. […], of 150 mM Tris base was injected after every 11 samples. Typically 8 assays were run in an overnight programmed run.

T1 sequence (P06239 127-224 limits assumed): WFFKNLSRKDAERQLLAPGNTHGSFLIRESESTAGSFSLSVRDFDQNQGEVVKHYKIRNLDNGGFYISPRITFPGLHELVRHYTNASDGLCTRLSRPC

Row | SMILES | Kd
1 | COC1CCC(Cn2ccc(C)c(NC(=O)C(Cc3ccc(C(C)(C)C(=O)O)cc3)NC(=O)Cc3ccc4ccccc4c3)c2=O)CC1 (centres unmarked) [Compound 239] | 3.2 µM
2 | COc1ccc(Cn2ccc(C)c(NC(=O)[C@H](Cc3ccc(C(C)(C)C(=O)O)cc3)NC(=O)Cc3c[nH]c4ccccc34)c2=O)cc1 [Compound 98] | 0.43 µM
3 | COc1ccc(Cn2ccc(C)c(NC(=O)[C@H](Cc3ccc(NC(=O)C(=O)O)cc3)NC(=O)Cc3ccc(NC(C)C)cc3)c2=O)cc1 [Compound 47] | 2.1 µM
4 | COc1ccc(Cn2ccc(C)c(NC(=O)[C@H](Cc3ccc(CC(=O)O)cc3)NC(=O)C3(c4ccccc4)CCCCC3)c2=O)cc1 [Compound 79] | 11 µM
5 | COCCOCCn1ccc(C)c(NC(=O)C(Cc2ccc(C(C)(C)C(=O)O)cc2)NC(=O)Cc2ccc3ccccc3c2)c1=O (centres unmarked) [Compound 143] | 6 µM
6 | COc1ccc(Cn2ccc(C)c(NC(=O)[C@H](Cc3ccc(CC(=O)O)cc3)NC(=O)COc3cccc4cnccc34)c2=O)cc1 [Compound 84] | 400 µM
7 | COc1ccc(Cn2ccc(C)c(NC(=O)[C@H](Cc3ccc(CS(=O)(=O)O)cc3)NC(=O)Cc3cccc4ccccc34)c2=O)cc1 [Compound 42, 3-[2'-(S)-(1'"-Naphthylacetyl)amino-3'-(4"-sulfonylmethyl)benzene]propanoylamino-1-(4-methoxybenzyl)-4-methyl-2-pyridone] | 1.5 µM
8 | Cc1ccc(Cn2ccc(C)c(NC(=O)[C@H](Cc3ccc(CC(=O)O)cc3)NC(=O)Cc3cccc4ccccc34)c2=O)cc1 [Compound 56] | 7.1 µM
9 | COc1ccc(Cn2ccc(C)c(NC(=O)[C@H](Cc3ccc(N(O)C(=O)C(=O)O)cc3)NC(C)=O)c2=O)cc1 [Compound 95] | 5.4 µM
10 | Cc1ccn(CCCCC(C)C)c(=O)c1NC(=O)C(Cc1ccc(C(C)(C)C(=O)O)cc1)NC(=O)OCc1ccccc1 (racemic) [Compound 146, 3-[2'-(R,S)-Benyloxycarbonylamino-3'-[4"-(1'"-carboxy-1'"-methyl)ethyl]benzene]propanoylamino-1-(5-methylhexyl)-4-methyl-2-pyridone] | 13 µM
11 | COc1ccc(Cn2ccc(C)c(NC(=O)C(Cc3ccc(C(C)(C)C(=O)O)cc3)N(C)C(=O)C(C)(C)c3ccc4ccccc4c3)c2=O)cc1 (centres unmarked) [Compound 161] | 460 µM
12 | COc1ccc(Cn2ccc(C)c(NC(=O)[C@H](Cc3ccc(NC(=O)C(=O)O)cc3)NC(=O)CNC(=O)c3ccccc3C(=O)O)c2=O)cc1 [Compound 31] | 0.68 µM
13 | Cc1ccn(CC2CCCCC2)c(=O)c1NC(=O)[C@H](Cc1ccc(CC(=O)O)cc1)NC(=O)Cc1cccc2ccccc12 [Compound 68] | 12 µM
14 | COc1ccc(Cn2ccc(C)c(NC(=O)[C@H](Cc3ccc(NC(=O)C(=O)O)cc3)NC(=O)Nc3cccc4ccccc34)c2=O)cc1 [Compound 9] | 64.5 µM
15 | COc1ccc(Cn2ccc(C)c(NC(=O)[C@H](Cc3ccc(C(C)(C)C(=O)O)cc3)NC(=O)Cc3ccc(C)cc3)c2=O)cc1 [Compound 114] | 0.19 µM
16 | COCCOCn1ccc(C)c(NC(=O)C(Cc2ccc(C(C)(C)C(=O)O)cc2)NC(=O)C(C)(C)c2ccc3ccccc3c2)c1=O (centres unmarked) [Compound 190] | 43 µM
17 | COc1ccc(Cn2ccc(C)c(NC(=O)[C@H](Cc3ccc(NC(=O)C(=O)O)cc3)NC(=O)Cc3cccc4ccccc34)c2=O)cc1 [Compound 52] | 0.24 µM
18 | COc1ccc(Cn2ccc(C)c(NC(=O)[C@H](Cc3ccc(CC(=O)O)cc3)NC(=O)Cc3cc(=O)oc4cc(N(C)C)ccc34)c2=O)cc1 [Compound 64] | 17 µM
19 | COc1ccc(Cn2ccc(C)c(NC(=O)[C@H](Cc3ccc(CC(=O)O)cc3)NC(=O)COc3cccc4c(N(C)C)cccc34)c2=O)cc1 [Compound 167] | 1.2 µM
20 | COc1c(F)c(F)c(Cn2ccc(C)c(NC(=O)C(Cc3ccc(C(C)(C)C(=O)O)cc3)NC(=O)Cc3ccc4ccccc4c3)c2=O)c(F)c1F (centres unmarked) [Compound 153] | 2.1 µM
21 | COc1ccc(Cn2ccc(C)c(NC(=O)C(Cc3ccc(C(C)(C)C(=O)O)cc3)NC(=O)C(C)(C)C)c2=O)cc1 (centres unmarked) [Compound 171] | 4.3 µM
22 | COC1CCC(Cn2ccc(C)c(NC(=O)C(Cc3ccc(C(C)(C)C(=O)O)cc3)NC(=O)Cc3ccc(C(F)(F)F)cc3)c2=O)CC1 (centres unmarked) [Compound 148] | 3.6 µM
23 | Cc1ccn(Cc2ccc(OC(C)C)cc2)c(=O)c1NC(=O)[C@H](Cc1ccc(CC(=O)O)cc1)NC(=O)Cc1cccc2ccccc12 [Compound 51] | > 69 µM

Row | SMILES | Kd
24 | COc1ccc(Cn2ccc(C)c(NC(=O)[C@H](Cc3ccc(N(O)C(=O)C(=O)O)cc3)NC(=O)Cc3cccc4ccccc34)c2=O)cc1 [Compound 1, 3-[2'-(S)-(1'"-Naphthylacetyl)amino-3'-[4"-(N-oxalyl, N-hydroxy)amino]benzene]propanoylamino-1-(4-methoxybenzyl)-4-methyl-2-pyridone] | 2.3 µM
25 | Cc1ccn(Cc2ccoc2)c(=O)c1NC(=O)C(Cc1ccc(C(C)(C)C(=O)O)cc1)NC(=O)Cc1ccc2ccccc2c1 (centres unmarked) [Compound 202] | 2.5 µM
26 | Cc1ccn(Cc2ccc(OC(F)(F)F)cc2)c(=O)c1NC(=O)[C@H](Cc1ccc(CC(=O)O)cc1)NC(=O)Cc1cccc2ccccc12 [Compound 53, 3-[2'-(S)-(1'"-Naphthyl)acetlyamino-3'-(4"-carboxymethyl)benzene]propanoylamino-1-(4-trifluoromethoxybenzyl)-4-methyl-2-pyridone] | 12.7 µM
27 | Cc1ccn(Cc2ccc(C(C)C)cc2)c(=O)c1NC(=O)[C@H](Cc1ccc(CC(=O)O)cc1)NC(=O)Cc1cccc2ccccc12 [Compound 54] | > 500 µM
28 | COc1ccc(Cn2ccc(C)c(NC(=O)[C@H](Cc3ccc(CC(=O)O)cc3)NC(=O)COc3cc4ccccc4cn3)c2=O)cc1 [Compound 86] | 3.3 µM
29 | COc1cc(Cn2ccc(C)c(NC(=O)C(Cc3ccc(C(C)(C)C(=O)O)cc3)NC(=O)Cc3ccc4ccccc4c3)c2=O)cc(OC)c1OC (centres unmarked) [Compound 157] | 21 µM
30 | COc1ccc(Cn2ccc(C)c(NC(=O)[C@H](Cc3ccc(NC(=O)C(=O)O)cc3)NC(=O)Nc3nc4ccccc4s3)c2=O)cc1 [Compound 7] | > 11 µM
31 | Cc1ccn(Cc2ccccn2)c(=O)c1NC(=O)[C@H](Cc1ccc(CC(=O)O)cc1)NC(=O)Cc1cccc2ccccc12 [Compound 23] | 55.7 µM
32 | COc1ccc(Cn2ccc(C)c(NC(=O)[C@H](Cc3ccc(NC(=O)C(=O)O)cc3)NC(=O)Cc3ccc(NCC(C)(C)C)cc3)c2=O)cc1 [Compound 48] | 0.5 µM
33 | COc1ccc(Cn2ccc(C)c(NC(=O)[C@H](Cc3ccc(CC(=O)O)cc3)NC(=O)Cc3cccc(OC(C)(C)C)c3)c2=O)cc1 [Compound 164] | 1.6 µM
34 | Cc1ccn(Cc2ccc(C(C)C)cc2)c(=O)c1NC(=O)[C@H](Cc1ccc(C(C)(C)C(=O)O)cc1)NC(=O)Cc1c[nH]c2ccccc12 [Compound 100] | 1.5 µM
35 | Cc1ccn(Cc2ccc(C(=O)C(F)(F)F)cc2)c(=O)c1NC(=O)C(Cc1ccc(C(C)(C)C(=O)O)cc1)NC(=O)Cc1ccc2ccccc2c1 (centres unmarked) [Compound 226] | 33 µM
36 | CCCCCCn1cc(Br)c(C)c(NC(=O)C(Cc2ccc(C(C)(C)C(=O)O)cc2)NC(=O)Cc2ccc3ccccc3c2)c1=O (centres unmarked) [Compound 238] | 0.72 µM
37 | COc1ccc(Cn2cc(Br)c(C)c(NC(=O)[C@H](Cc3ccc(-n4nnc(C(=O)O)c4C(=O)O)cc3)NC(=O)Cc3ccc4ccccc4c3)c2=O)cc1 [Compound 241, 3-[2'-(S)-(2""-Naphthylacetyl)amino-3'-[4"-(4'",5'"-dicarboxytriazolyl)]benzene]propanoylamino-1-(4-methoxybenzyl)-5-bromo-4-methyl-2-pyridone] | 0.06 µM
38 | COc1ccc(Cn2ccc(C)c(NC(=O)[C@H](Cc3ccc(NC(=O)C(=O)O)cc3)NC(C)=O)c2=O)cc1 [Compound 6] | 8.3 µM
39 | COc1ccc(Cn2ccc(C)c(NC(=O)C(Cc3ccc(C(C)(C)C(=O)O)cc3)NC(=O)C(C)(C)c3ccc(N(C)C)cc3)c2=O)cc1 (centres unmarked) [Compound 230] | 0.51 µM
40 | Cc1ccn(Cc2ccccc2)c(=O)c1NC(=O)C(Cc1ccc(C(C)(C)C(=O)O)cc1)NC(=O)Cc1cccc2ccccc12 (centres unmarked) [Compound 197] | 9 µM
41 | COc1ccc(Cn2ccc(C)c(NC(=O)[C@H](Cc3ccc(CC(=O)O)cc3)NC(=O)Cc3cc4ccccc4[nH]3)c2=O)cc1 [Compound 41] | 4.7 µM
42 | COc1ccc(Cn2ccc(CCO)c(NC(=O)C(Cc3ccc(C(C)(C)C(=O)O)cc3)NC(=O)C(C)(C)c3ccc4ccccc4c3)c2=O)cc1 (centres unmarked) [Compound 223] | 2.4 µM
43 | COc1ccc(Cn2ccc(C)c(NC(=O)[C@H](Cc3ccc(C(C)(C)C(=O)O)cc3)NC(=O)[C@@H](C)c3cccc4ccccc34)c2=O)cc1 [Compound 45] | 3.4 µM
44 | COC1CCC(Cn2ccc(C)c(NC(=O)C(Cc3ccc(C(C)(C)C(=O)O)cc3)NC(=O)Cc3ccc4ccccc4c3)c2=O)CC1 (centres unmarked) [Compound 147] | 1.9 µM
45 | COc1ccc(Cn2ccc(C)c(NC(=O)[C@H](Cc3ccc(CC(=O)O)cc3)NC(=O)COc3ccc4ccccc4c3)c2=O)cc1 [Compound 166] | 1.7 µM

Same assay, conditions: Table 2, compounds of formula (III)

Row | SMILES | Kd
46 | COc1ccc(Cn2ncc(C)c(NC(=O)C(Cc3ccc(C(C)(C)C(=O)O)cc3)NC(=O)Cc3ccccc3N)c2=O)cc1 (centres unmarked) [Compound 246] | 30 µM
47 | COc1ccc(Cn2ncc(C)c(NC(=O)[C@H](Cc3ccc(CC(=O)O)cc3)NC(=O)Cc3cccc4ccccc34)c2=O)cc1 [Compound 243] | 35 µM
